Results taken from the supplement of paper PMC10307832.

Columns and labels:
Assay in all cases: relative viability (nuclei count vs DMSO), 5 days (fraction); higher = more cells survive
SW 900 = system: SW 900
Outline: (§1)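 For relative viability, nuclei counts in treated wells were divided by those in vehicle wells. Lung cancer cell lines had been pin-tool dosed in 1536-well plates the day after seeding and cultured for 5 days, then fixed and stained in one step (final 0.05% Triton X-100, 1% formaldehyde, 1 ug/ml Hoechst) and imaged at 4×. Doses were one drug alone or a fixed anchor-drug dose plus five library-drug doses (not always all listed) in √10 steps, and values are duplicate-plate medians.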

NCI-H1792 = system: NCI-H1792
Outline: as §1

NCI-H1437 = system: NCI-H1437
Outline: as §1

NCI-H596 = system: NCI-H596
Outline: as §1

NCI-H1650 = system: NCI-H1650
Outline: as §1

NCI-H650 = system: NCI-H650
Outline: as §1

HCC-15 = system: HCC-15
Outline: as §1

A-427 = system: A-427
Outline: as §1

NCI-H2342 = system: NCI-H2342
Outline: as §1

EKVX = system: EKVX
Outline: as §1

NCI-H838 = system: NCI-H838
Outline: as §1

HCC-44 = conditions: first compound 0.005 µM
Outline: as §1

`Nc1ccn([C@@H]2O[C@H](CO)[C@@H](O)[C@@H]2O)c(=O)n1` [Cytarabine] + Nc1ncn([C@H]2C[C@H](O)[C@@H](CO)O2)c(=O)n1 [Decitabine] (partner 2 µM) gave a relative viability (SW 900; first compound 0.005 µM) of 0.384, a relative viability (SW 900; first compound 0.01581 µM) of 0.344 and a relative viability (SW 900; first compound 0.05 µM) of 0.325. It also gave a relative viability (SW 900; first compound 0.1581 µM) of 0.199, a relative viability (SW 900; first compound 0.5 µM) of 0.287 and a relative viability (NCI-H1792; first compound 0.01581 µM) of 0.647. For the same compound, the relative viability (NCI-H1792; first compound 0.05 µM) was 0.387, the relative viability (NCI-H1792; first compound 0.1581 µM) was 0.251 and the relative viability (NCI-H1792; first compound 0.5 µM) was 0.205. The relative viability (NCI-H1437; first compound 0.005 µM) was 0.498, the relative viability (NCI-H1437; first compound 0.01581 µM) was 0.442 and the relative viability (NCI-H1437; first compound 0.05 µM) was 0.48. For the same compound, the relative viability (NCI-H1437; first compound 0.1581 µM) was 0.338, the relative viability (NCI-H1437; first compound 0.5 µM) was 0.268 and the relative viability (NCI-H596; first compound 0.005 µM) was 0.858. The relative viability (NCI-H596; first compound 0.01581 µM) was 0.916, the relative viability (NCI-H596; first compound 0.05 µM) was 0.658 and the relative viability (NCI-H596; first compound 0.1581 µM) was 0.581. For the same compound, the relative viability (NCI-H596; first compound 0.5 µM) was 0.767, the relative viability (NCI-H1650; first compound 0.005 µM) was 0.294 and the relative viability (NCI-H1650; first compound 0.01581 µM) was 0.286. For the same compound, the relative viability (NCI-H1650; first compound 0.05 µM) was 0.276, the relative viability (NCI-H1650; first compound 0.1581 µM) was 0.17 and the relative viability (NCI-H1650; first compound 0.5 µM) was 0.172. The relative viability (NCI-H650; first compound 0.005 µM) was 0.326, the relative viability (NCI-H650; first compound 0.01581 µM) was 0.255 and the relative viability (NCI-H650; first compound 0.05 µM) was 0.247. The relative viability (NCI-H650; first compound 0.1581 µM) was 0.152, the relative viability (NCI-H650; first compound 0.5 µM) was 0.152 and the relative viability (HCC-15; first compound 0.005 µM) was 0.511. It also gave a relative viability (HCC-15; first compound 0.01581 µM) of 0.528, a relative viability (HCC-15; first compound 0.05 µM) of 0.594 and a relative viability (HCC-15; first compound 0.1581 µM) of 0.462. For the same compound, the relative viability (HCC-15; first compound 0.5 µM) was 0.464, the relative viability (A-427; first compound 0.005 µM) was 0.475 and the relative viability (A-427; first compound 0.01581 µM) was 0.421. It also gave a relative viability (A-427; first compound 0.05 µM) of 0.361, a relative viability (A-427; first compound 0.1581 µM) of 0.259 and a relative viability (A-427; first compound 0.5 µM) of 0.263. The relative viability (NCI-H2342; first compound 0.005 µM) was 0.712, the relative viability (NCI-H2342; first compound 0.01581 µM) was 0.702 and the relative viability (NCI-H2342; first compound 0.05 µM) was 0.7. The relative viability (NCI-H2342; first compound 0.1581 µM) was 0.482, the relative viability (NCI-H2342; first compound 0.5 µM) was 0.483 and the relative viability (EKVX; first compound 0.005 µM) was 0.485. It also gave a relative viability (EKVX; first compound 0.01581 µM) of 0.282, a relative viability (EKVX; first compound 0.05 µM) of 0.259 and a relative viability (EKVX; first compound 0.5 µM) of 0.184. The relative viability (NCI-H838; first compound 0.005 µM) was 0.476, the relative viability (NCI-H838; first compound 0.01581 µM) was 0.407 and the relative viability (NCI-H838; first compound 0.05 µM) was 0.427. It also gave a relative viability (NCI-H838; first compound 0.1581 µM) of 0.311, a relative viability (NCI-H838; first compound 0.5 µM) of 0.274 and a relative viability (HCC-44) of 1.04.
